In patent US8357717B2, “Spiro group-containing amide compounds having bradykinin 1 receptor (B1R) activity” (Gruenenthal GmbH, priority 2009, dated 2013):

Assays:
[1] = biological target: T1, human B1R receptor (hB1R) (Homo sapiens, UniProt P46663); assay: FLIPR Ca2+ functional study on bradykinin receptor 1, hB1R cells (CHO K1); type: cell-based; conditions: CHO-K1, 10 μM test substance; CHO K1 cells with human B1R; agonist Lys-Des-Arg9-bradykinin at EC80; read-out: B1R antagonism, human [10 μM] % inhibition
T1 construct: expressed in transfected cells; host or cells: CHO K1 cells, stably transfected
T1 sequence (P46663 1-353): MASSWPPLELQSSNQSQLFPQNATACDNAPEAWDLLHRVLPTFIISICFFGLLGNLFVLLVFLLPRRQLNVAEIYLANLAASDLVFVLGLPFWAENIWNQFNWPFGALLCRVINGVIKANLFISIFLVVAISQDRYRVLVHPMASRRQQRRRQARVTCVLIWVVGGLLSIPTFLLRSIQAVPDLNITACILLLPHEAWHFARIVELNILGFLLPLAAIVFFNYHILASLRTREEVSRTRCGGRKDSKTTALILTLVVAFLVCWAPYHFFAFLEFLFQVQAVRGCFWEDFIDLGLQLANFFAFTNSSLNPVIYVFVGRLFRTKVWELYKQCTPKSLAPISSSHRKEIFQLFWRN
In short: (§1)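 Stably transfected CHO K1 cells loaded with Fluo-4; FLIPR Ca2+ fluorescence (ex 488/em 540 nm, peak counts). Compounds (10 μM, or concentration series for IC50) preincubated 10–20 min, then EC80 agonist added (human: Lys-Des-Arg9-bradykinin; rat: Des-Arg9-bradykinin); % inhibition versus maximum achievable, n=2–3, N≥2.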

[2] = biological target: T2, B1R receptor of the rat (rB1R) (Rattus norvegicus, UniProt P97583); assay: FLIPR Ca2+ functional study on bradykinin receptor 1, rB1R cells (CHO K1); type: cell-based; conditions: 10 μM test substance; CHO K1 cells with rat B1R; agonist Des-Arg9-bradykinin at EC80; read-out: B1R antagonism, rat [10 μM] % inhibition
T2 construct: expressed in transfected cells; host or cells: CHO K1 cells, stably transfected
T2 sequence (P97583 1-337): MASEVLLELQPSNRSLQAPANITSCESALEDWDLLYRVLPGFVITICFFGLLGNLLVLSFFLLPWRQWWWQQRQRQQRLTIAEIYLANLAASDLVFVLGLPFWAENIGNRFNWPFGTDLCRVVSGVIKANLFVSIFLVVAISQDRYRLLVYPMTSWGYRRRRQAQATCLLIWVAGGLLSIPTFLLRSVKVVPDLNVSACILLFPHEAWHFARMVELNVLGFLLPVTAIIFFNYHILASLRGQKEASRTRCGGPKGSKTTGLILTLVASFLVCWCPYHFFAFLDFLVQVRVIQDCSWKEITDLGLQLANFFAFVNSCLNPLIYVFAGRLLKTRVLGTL
In short: as §1

| Compound | inhibition at 10 µM [1] | inhibition at 10 µM [2] |
| --- | --- | --- |
| O=C(Nc1ccc(Cl)c(Cl)c1)N1CCc2onc(C(=O)N3CCC4(CC3)CCN(c3ccncc3)CC4)c2C1 [Compound G-46, N-(3,4-Dichlorophenyl)-3-(9-(pyridin-4-yl)-3,9-diazaspiro[5.5]undecane-3-carbonyl)-6,7-dihydroisoxazolo[4,5-c]pyridine-5(4H)-carboxamide] | 35% | 57% |
| Cc1ccc(S(=O)(=O)N2CCc3ccc(C(=O)N4CCC5(CC4)CCN(c4ccncc4)CC5)cc3C2)c2ccccc12 [Compound G-47, (2-(4-Methylnaphthalin-1-ylsulfonyl)-1,2,3,4-tetrahydroisoquinolin-7-yl)(9-(pyridin-4-yl)-3,9-diazaspiro[5.5]undecan-3-yl)methanone] | 72% | 80% |
| COc1ccc(S(=O)(=O)N2CCc3ccc(C(=O)N4CCC5(CC4)CCN(c4ccncc4)CC5)cc3C2)c2ccccc12 [Compound G-48, (2-(4-Methoxynaphthalin-1-ylsulfonyl)-1,2,3,4-tetrahydroisoquinolin-7-yl)(9-(pyridin-4-yl)-3,9-diazaspiro[5.5]undecan-3-yl)methanone] | 73% | 95% |
| O=C(c1ccc2c(c1)CN(S(=O)(=O)c1ccc(Cl)c3ccccc13)CC2)N1CCC2(CC1)CCN(c1ccncc1)CC2 [Compound G-50, (2-(4-Chloronaphthalin-1-ylsulfonyl)-1,2,3,4-tetrahydroisoquinolin-7-yl)(9-(pyridin-4-yl)-3,9-diazaspiro[5.5]undecan-3-yl)methanone] | 69% | 91% |
| Cc1cccc(Cl)c1S(=O)(=O)N1CCCc2ccc(CC(=O)N3CCC4(CCN(c5ccncc5)CC4)C3)cc21 [Compound G-51, 2-(1-(2-Chloro-6-methylphenylsulfonyl)-1,2,3,4-tetrahydroquinolin-7-yl)-1-(8-(pyridin-4-yl)-2,8-diazaspiro[4.5]decan-2-yl)ethanone] | 100% | 106% |
| O=C(Cc1ccc2c(c1)N(S(=O)(=O)c1cccc3ccccc13)CCC2)N1CCC2(CCN(c3ccncc3)CC2)C1 [Compound G-52, 2-(1-(Naphthalin-1-ylsulfonyl)-1,2,3,4-tetrahydroquinolin-7-yl)-1-(8-(pyridin-4-yl)-2,8-diazaspiro[4.5]decan-2-yl)ethanone] | 98% | 106% |
| O=C(Cc1ccc2c(c1)N(S(=O)(=O)c1cccc3ccccc13)CCC2)N1CCC2(CCN(c3ccncc3)C2)C1 (centres unmarked) [Compound G-53, 2-(1-(Naphthalin-1-ylsulfonyl)-1,2,3,4-tetrahydroquinolin-7-yl)-1-(7-(pyridin-4-yl)-2,7-diazaspiro[4.4]nonan-2-yl)ethanone] | 95% | 105% |
| O=C(Cc1ccc2c(c1)N(S(=O)(=O)c1cccc3ccccc13)CCC2)N1CCC2(CCC(N3CCC3)CC2)CC1 [Compound G-54, 1-(9-(Azetidin-1-yl)-3-azaspiro[5.5]undecan-3-yl)-2-(1-(naphthalin-1-ylsulfonyl)-1,2,3,4-tetrahydroquinolin-7-yl)ethanone] | 57% | 55% |
| O=C(c1ccc2c(c1)CN(S(=O)(=O)c1ccc(F)c3ccccc13)CC2)N1CCC2(CC1)CCN(c1ccncc1)CC2 [Compound G-56, (2-(4-Fluoronaphthalin-1-ylsulfonyl)-1,2,3,4-tetrahydroisoquinolin-7-yl)(9-(pyridin-4-yl)-3,9-diazaspiro[5.5]undecan-3-yl)methanone] | 87% | 90% |
| O=C(Cc1ccc2c(c1)N(S(=O)(=O)c1ccccc1C(F)(F)F)CCC2)N1CCC2(CCN(c3ccncc3)CC2)C1 [Compound G-57, 1-(8-(Pyridin-4-yl)-2,8-diazaspiro[4.5]decan-2-yl)-2-(1-(2-(trifluoromethyl)phenylsulfonyl)-1,2,3,4-tetrahydroquinolin-7-yl)ethanone] | 100% | 101% |
| O=C(c1ccc2c(c1)CN(S(=O)(=O)c1cccc3c(Cl)cccc13)CC2)N1CCC2(CC1)CCN(c1ccncc1)CC2 [Compound G-62, (2-(5-Chloronaphthalin-1-ylsulfonyl)-1,2,3,4-tetrahydroisoquinolin-7-yl)(9-(pyridin-4-yl)-3,9-diazaspiro[5.5]undecan-3-yl)methanone] | 44% | 78% |
| O=C(Cc1ccc2c(c1)N(C(=O)c1ccccc1Cl)CCC2)N1CCC2(CC1)CCN(c1ccncc1)CC2 [Compound G-64, 2-[1-(2-Chloro-benzoyl)-1,2,3,4-tetrahydro-quinolin-7-yl]-1-(9-pyridin-4-yl-3,9-diazaspiro[5.5]undecan-3-yl)-ethanone] | 59% | 96% |

Next, values leading:

| inhibition at 10 µM [1] | inhibition at 10 µM [2] | Compound |
| --- | --- | --- |
| 99% | 106% | O=C(c1ccc2c(c1)CN(C(=O)C(c1ccccc1)c1ccccc1)CC2)N1CCC2(CC1)CCN(c1ccncc1)CC2 [Compound G-49, 2,2-Diphenyl-1-(7-(9-(pyridin-4-yl)-3,9-diazaspiro[5.5]undecane-3-carbonyl)-3,4-dihydroisoquinolin-2(1H)-yl)ethanone] |
| 92% | 94% | O=C(Nc1ccc(Cl)c(Cl)c1)N1CCc2ccc(C(=O)N3CCC4(CC3)CCN(c3ccncc3)CC4)cc2C1 [Compound G-55, N-(3,4-dichlorophenyl)-7-(9-(pyridin-4-yl)-3,9-diazaspiro[5.5]undecane-3-carbonyl)-3,4-dihydroisoquinoline-2(1H)-carboxamide] |
| 100% | 91% | Cc1ccc(C(=O)N2CCc3ccc(C(=O)N4CCC5(CC4)CCN(c4ccncc4)CC5)cc3C2)s1 [Compound G-58, (5-Methylthiophen-2-yl)(7-(9-(pyridin-4-yl)-3,9-diazaspiro[5.5]undecane-3-carbonyl)-3,4-dihydroisoquinolin-2(1H)-yl)methanone] |
| 86% | 95% | O=C(c1ccc2c(c1)CN(C(=O)c1cc3ccccc3s1)CC2)N1CCC2(CC1)CCN(c1ccncc1)CC2 [Compound G-59, Benzo[b]thiophen-2-yl(7-(9-(pyridin-4-yl)-3,9-diazaspiro[5.5]undecane-3-carbonyl)-3,4-dihydroisoquinolin-2(1H)-yl)methanone] |
| 98% | 91% | O=C(c1ccc2c(c1)CN(C(=O)c1cc3c(s1)CCC3)CC2)N1CCC2(CC1)CCN(c1ccncc1)CC2 [Compound G-60, (5,6-Dihydro-4H-cyclopenta[b]thiophen-2-yl)(7-(9-(pyridin-4-yl)-3,9-diazaspiro[5.5]undecane-3-carbonyl)-3,4-dihydroisoquinolin-2(1H)-yl)methanone] |
| 77% | 91% | COc1ccc2c(Cl)c(C(=O)N3CCc4ccc(C(=O)N5CCC6(CC5)CCN(c5ccncc5)CC6)cc4C3)sc2c1 [Compound G-61, (3-Chloro-6-methoxybenzo[b]thiophen-2-yl)(7-(9-(pyridin-4-yl)-3,9-diazaspiro[5.5]undecane-3-carbonyl)-3,4-dihydroisoquinolin-2(1H)-yl)methanone] |
| 83% | 80% | CC(C)(C)c1ccc(C(=O)N2CCc3ccc(C(=O)N4CCC5(CC4)CCN(c4ccncc4)CC5)cc3C2)s1 [Compound G-63, (5-tert-Butylthiophen-2-yl)(7-(9-(pyridin-4-yl)-3,9-diazaspiro[5.5]undecane-3-carbonyl)-3,4-dihydroisoquinolin-2(1H)-yl)methanone] |
